Test results taken from BindingDB's records for doi:10.1021/jm00099a026 (Smithkline Beecham Pharmaceuticals, 1992).

Assay: Inhibition of ADP-induced platelet aggregation in canine platelet-rich plasma

| IC50 [µM] | Compound |
| --- | --- |
| 4.12 | CC(=O)N[C@@H](CS)C(=O)N[C@@H](CCCN=C(N)N)C(=O)NCC(=O)N[C@@H](CC(=O)O)C(=O)N[C@@H](C(N)=O)C(C)(C)S |
| 76.6 | N=C(N)NCCC[C@@H]1NC(=O)[C@@H]2CCCN2C(=O)CNC(=O)[C@H]2CCCN2C(=O)[C@H](CC(=O)O)NC(=O)CNC1=O |
| 5.26 | N=C(N)NCCC[C@@H]1NC(=O)[C@@H]2CCCN2C(=O)[C@H]2CCCN2C(=O)CNC(=O)[C@H](CC(=O)O)NC(=O)CNC1=O |
| 0.09 | CN(C(=O)c1ccccc1S)[C@@H](CCCNC(=N)N)C(=O)NCC(=O)N[C@@H](CC(=O)O)C(=O)Nc1ccccc1S |
| 10.1 | C[C@H](NC(=O)[C@H](CS)NC(=O)[C@@H]1CCCN1C(=O)[C@H](CO)NC(=O)[C@H](CC(=O)O)NC(=O)CNC(=O)[C@H](CCCNC(=N)N)NC(=O)CNC(=O)[C@@H](NC(=O)CN)C(C)(C)S)C(=O)O |

The remaining lines, values behind:

| Compound | IC50 [µM] |
| --- | --- |
| N=C(N)NCCC[C@@H]1NC(=O)[C@@H]2CCCN2C(=O)[C@@H](Cc2ccccc2)NC(=O)CNC(=O)[C@H](CC(=O)O)NC(=O)CNC1=O | 17.7 |
| CC(=O)N[C@@H](CS)C(=O)N(C)[C@H](CCCN=C(N)N)C(=O)NCC(=O)N[C@@H](CC(=O)O)C(=O)N[C@H](C(N)=O)C(C)(C)S | 1.79 |
| CC(=O)N[C@@H](CS)C(=O)N[C@@H](CCCNC(=N)N)C(=O)NCC(=O)N[C@@H](CC(=O)O)C(=O)N[C@H](C(N)=O)C(C)(C)S | 20.3 |
| CC(=O)N[C@@H](CS)C(=O)N(C)[C@@H](CCCN=C(N)N)C(=O)NCC(=O)N[C@@H](CC(=O)O)C(=O)N[C@H](C(N)=O)C(C)(C)S | 0.355 |
| CC(=O)N[C@@H](CS)C(=O)N[C@H](CCCN=C(N)N)C(=O)NCC(=O)N[C@@H](CC(=O)O)C(=O)N[C@H](C(N)=O)C(C)(C)S | 4.1 |
